Measured values: the supplement of paper PMC10307832

Tests used:
Test in all cases: relative viability (nuclei count vs DMSO), 5 days (fraction); higher = more cells survive
VE-821 + OSI-027 = compound: CS(=O)(=O)c1ccc(-c2cnc(N)c(C(=O)Nc3ccccc3)n2)cc1 [VE-821] + COc1cccc2cc(-c3nc([C@H]4CC[C@H](C(=O)O)CC4)n4ncnc(N)c34)[nH]c12 [OSI-027] (partner 0.5 µM)
Outline: (§1)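 Lung cancer cell lines in 1536-well plates got either a single drug or a fixed anchor-drug dose together with five library-drug doses (not always all listed) in √10 steps, by pin tool, on the day after seeding. Nuclei were counted after 5 days, and relative viability is the treated-to-vehicle ratio of nuclei counts. Values are medians of duplicate plates.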

Vismodegib + Tozasertib = compound: CS(=O)(=O)c1ccc(C(=O)Nc2ccc(Cl)c(-c3ccccn3)c2)c(Cl)c1 [Vismodegib] + Cc1cc(Nc2cc(N3CCN(C)CC3)nc(Sc3ccc(NC(=O)C4CC4)cc3)n2)n[nH]1 [Tozasertib] (partner 0.1 µM)
Outline: as §1

Ruxolitinib + Crizotinib = compound: N#CC[C@H](C1CCCC1)n1cc(-c2ncnc3[nH]ccc23)cn1 [Ruxolitinib] + C[C@@H](Oc1cc(-c2cnn(C3CCNCC3)c2)cnc1N)c1c(Cl)ccc(F)c1Cl [Crizotinib] (partner 1 µM)
Outline: as §1

Ruxolitinib + Vorinostat = compound: N#CC[C@H](C1CCCC1)n1cc(-c2ncnc3[nH]ccc23)cn1 [Ruxolitinib] + O=C(CCCCCCC(=O)Nc1ccccc1)NO [Vorinostat] (partner 1 µM)
Outline: as §1

Row | Cell Line | relative viability (VE-821 + OSI-027; first compound 0.08 µM) | relative viability (VE-821 + OSI-027; first compound 0.253 µM) | relative viability (VE-821 + OSI-027; first compound 0.8 µM) | relative viability (VE-821 + OSI-027; first compound 2.53 µM) | relative viability (VE-821 + OSI-027; first compound 8 µM) | relative viability (Vismodegib + Tozasertib; first compound 0.08 µM) | relative viability (Vismodegib + Tozasertib; first compound 0.253 µM) | relative viability (Vismodegib + Tozasertib; first compound 0.8 µM) | relative viability (Vismodegib + Tozasertib; first compound 2.53 µM) | relative viability (Vismodegib + Tozasertib; first compound 8 µM) | relative viability (Ruxolitinib + Crizotinib; first compound 0.253 µM) | relative viability (Ruxolitinib + Crizotinib; first compound 0.8 µM) | relative viability (Ruxolitinib + Crizotinib; first compound 2.53 µM) | relative viability (Ruxolitinib + Crizotinib; first compound 8 µM) | relative viability (Ruxolitinib + Vorinostat; first compound 0.08 µM) | relative viability (Ruxolitinib + Vorinostat; first compound 0.253 µM) | relative viability (Ruxolitinib + Vorinostat; first compound 0.8 µM) | relative viability (Ruxolitinib + Vorinostat; first compound 2.53 µM) | relative viability (Ruxolitinib + Vorinostat; first compound 8 µM) | relative viability (Ruxolitinib + Crizotinib; first compound 0.08 µM)
1 | NCI-H1650 | 0.757 | 0.542 | 0.546 | 0.613 | 0.415 | 0.413 | 0.365 | 0.315 | 0.286 | 0.34 | 0.9 | 1.11 | 0.83 | 0.848 | 0.558 | 0.557 | 0.708 | 0.551 | 0.57 | –
2 | COR-L 105 | 0.741 | 0.551 | 0.647 | 0.642 | 0.695 | 0.357 | 0.335 | 0.25 | 0.374 | 0.391 | 0.634 | 0.853 | 0.444 | 0.625 | – | 0.721 | 0.785 | 0.488 | 0.615 | 0.789
3 | COR-L23 | 0.9 | 0.751 | 0.797 | 0.766 | 0.63 | 0.203 | 0.218 | 0.181 | 0.177 | 0.168 | 0.681 | 0.733 | 0.7 | 0.433 | 0.579 | 0.347 | 0.463 | 0.403 | 0.287 | 0.717
4 | NCI-H596 | 0.648 | 0.519 | 0.534 | 0.558 | 0.451 | 1 | 0.814 | 0.932 | 0.838 | 0.769 | 0.98 | 1.19 | 0.919 | 0.912 | 0.713 | 0.638 | 0.743 | 0.589 | 0.454 | 0.994
5 | NCI-H322M | 0.533 | 0.519 | 0.577 | 0.482 | 0.286 | 0.483 | 0.485 | 0.503 | 0.473 | 0.443 | 1.27 | 1.01 | 1.1 | 1.09 | 0.951 | 1.01 | 1.05 | 1.3 | 1.4 | 0.9
6 | H3255 | 0.603 | 0.584 | 0.637 | 0.606 | 0.566 | 0.524 | 0.55 | 0.623 | 0.606 | 0.563 | 0.752 | 1.12 | 0.806 | 0.849 | – | 0.9 | 0.892 | 0.791 | 0.382 | –
7 | PC-14 | 1.01 | 0.762 | 0.913 | 0.824 | 0.336 | 0.554 | 0.606 | 0.556 | 0.539 | 0.547 | 0.949 | 0.883 | 0.819 | 0.655 | – | 0.788 | 1.05 | 0.658 | 0.652 | –
8 | A549 | – | – | – | – | – | – | – | – | – | – | 0.891 | 0.855 | 0.692 | 0.293 | – | – | – | – | – | 0.782
9 | NCI-H2342 | 0.648 | 0.54 | 0.639 | 0.584 | 0.527 | 0.508 | 0.492 | 0.477 | 0.511 | 0.461 | – | – | – | – | 0.82 | 0.706 | 0.833 | 0.724 | 0.823 | –
